The values that follow come from US11882828B2, “Mosquito vector control compositions, methods and products utilizing same” (priority 2015, dated 2024).

Assay in all cases: Example B5: bottle based cross resistance study (CDC bottle assay)
Holding throughout (format): in vivo

Experiment [1] has as its system VK7. Particulars: Anopheles coluzzii, 24 h, Table B5c, after 24 hours. In a few lines: (§1)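 Glass bottles were coated with test compound from ethanol. Mortality was scored at 24 h after recovery on 10% sucrose; values are means of ≥4 replicates, with a susceptible strain run alongside.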
Experiment [2] relates to An. Gambiae Kisumu sus. As to conditions: Kisumu sus.
The test system of experiment [3] is An. Gambiae Tiassalé.
In experiment [4] the test system is An. stephensi.
Experiment [5] concerns FUMOZ. As to conditions: Anopheles funestus, 24 h, Table B5c; 25 ppm; after 24 hours; FUMOZ. In a few lines:
as §1

Molecules are shown by their SMILES.

Turning to `CO/C=C(/C(=O)OC)c1ccccc1Oc1nc(C(C)(C)C)ns1` [Compound 7, Methyl (E)-2-[2-[(3-tert-butyl-1,2,4-thiadiazol-5-yl)oxy]phenyl]-3-methoxy-prop-2-enoate], the mortality (in general, the share of the test organisms that died) at 25 ppm came to 19% in experiment [1]; 97% in experiment [2] (Anopheles gambiae, 24 h, Table B5c, 25 ppm, after 24 hours); 20% in experiment [5]. The “Knockdown (%) at 15 mins” value came out at 100% in experiment [2] (20 ppm, bottle); 70% in experiment [3] (20 ppm, bottle, Tiassalé); 37% in experiment [4] (20 ppm, bottle, An. stephensi). Also, the “Knockdown (%) at 60 mins” value in experiment [2] (20 ppm, bottle) is 100%; in experiment [3] (20 ppm, bottle, Tiassalé), 97%; in experiment [4] (20 ppm, bottle, An. stephensi), 100%. The mortality at 20 ppm turned out to be 99% in experiment [2] (Anopheles gambiae, 20 ppm, bottle, one hour exposure, after 24 hours); 95% in experiment [3] (Anopheles gambiae); 100% in experiment [4] (Anopheles stephensi).
